Values joined by “and” are separate entries in the source; they are usually repeats but may differ in a detail not shown here. Equal values may be shown once. Read-outs that look alike come from different tables or passages of the source. Each block holds one compound with its values, some of them ahead of it.
Experiments:
[1] = target: α1-adrenoceptor; assay: Competitive radioligand-binding assay, [3H]prazosin; parameters: species or system rat
Procedure: (§1) 10 mM stock solutions of test compounds were prepared in DMSO. Serial dilutions of compounds were prepared in 96-well microplate in assay buffers using an automated pipetting system epMotion 5070 (Eppendorf, Poland). Each compound was tested in 6 concentrations of 1.0E-05 to 1.0E-10 M (final concentration).
(§2) Affinity towards α1- and α2-adrenoceptors was evaluated using the competitive radioligand-binding assay. Experiments were conducted in the rat cerebral cortex. Radioligand [3H]prazosin (84,2 Ci/mmol, α1-adrenoceptor, PerkinElmer, Poland, NET823001MC) and [3H]clonidine (70.5 Ci/mmol, α2-adrenoceptor, PerkinElmer, Poland, NET613250UC) were used. The membrane preparation and the assay procedure were carried out accordingly as previously published. Radioactivity was counted on the MicroBeta2 scintillation counter (PerkinElmer, Poland). Data were fitted to a one-site curve-fitting equation with Prism 8 (GraphPad Software, USA), and Ki values were estimated from the Cheng–Prusoff equation.

[2] = target: T1, α2-adrenoceptor (Rattus norvegicus, UniProt P22909); assay: Competitive radioligand-binding assay, [3H]clonidine; conditions: ADRA2, experiments 1-3, duplicates
T1 sequence (P22909 1-465): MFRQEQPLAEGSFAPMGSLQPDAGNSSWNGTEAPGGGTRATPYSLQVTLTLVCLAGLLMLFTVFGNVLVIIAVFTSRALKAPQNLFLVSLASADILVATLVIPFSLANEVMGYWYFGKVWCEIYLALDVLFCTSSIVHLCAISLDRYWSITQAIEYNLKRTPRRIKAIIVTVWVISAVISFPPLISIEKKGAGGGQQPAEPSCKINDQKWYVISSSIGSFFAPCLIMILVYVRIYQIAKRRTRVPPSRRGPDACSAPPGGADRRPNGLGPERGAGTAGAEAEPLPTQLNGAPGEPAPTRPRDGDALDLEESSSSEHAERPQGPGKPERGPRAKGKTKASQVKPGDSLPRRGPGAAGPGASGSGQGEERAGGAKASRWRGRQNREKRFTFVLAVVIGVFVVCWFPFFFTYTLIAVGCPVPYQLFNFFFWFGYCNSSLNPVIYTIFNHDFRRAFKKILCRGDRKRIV
Procedure: as §1, §2

[3] = target: T2, α2A-adrenoceptor (Homo sapiens, UniProt P08913); assay: Intrinsic activity, Tango beta-lactamase reporter assay; assay type: cell-based; conditions: ADRAA2A
T2 sequence (P08913 1-465): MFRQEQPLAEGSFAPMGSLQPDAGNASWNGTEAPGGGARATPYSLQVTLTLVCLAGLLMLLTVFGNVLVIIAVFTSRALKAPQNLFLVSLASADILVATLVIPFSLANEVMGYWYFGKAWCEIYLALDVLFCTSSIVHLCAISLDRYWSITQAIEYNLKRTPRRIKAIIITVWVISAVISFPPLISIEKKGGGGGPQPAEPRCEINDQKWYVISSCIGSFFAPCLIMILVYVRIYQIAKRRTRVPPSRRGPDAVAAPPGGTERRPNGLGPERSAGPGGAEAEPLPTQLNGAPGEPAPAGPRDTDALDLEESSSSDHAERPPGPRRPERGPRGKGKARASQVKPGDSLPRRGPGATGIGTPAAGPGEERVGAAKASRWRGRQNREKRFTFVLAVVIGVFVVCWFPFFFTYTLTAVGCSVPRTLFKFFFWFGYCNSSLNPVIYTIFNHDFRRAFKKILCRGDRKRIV
Procedure: The intrinsic activity at α2A-adrenoceptor was assessed by the Tango assay technology that uses a mammalian-optimized beta-lactamase (bla) reporter gene combined with an FRET-enabled substrate to provide reliable and sensitive detection in cells. Cells are loaded with an engineered fluorescent substrate containing two fluorophores, coumarin, and fluorescein. In the absence of bla expression, the substrate molecule remains intact. In this state, excitation of the coumarin results in a transfer of fluorescence resonance energy to the fluorescein moiety and emission of green fluorescent light. However, in the presence of bla expression, the substrate is cleaved, separating the fluorophores and disrupting energy transfer. Excitation of the coumarin in the presence of bla enzyme activity results in a blue fluorescence signal.
Intrinsic activity assay was performed according to the manufacturer of the assay kit (Invitrogen, Life Technologies). Cells were harvested and resuspended in an assay medium at a density of 312,500 cells/ml. 32 μL per well of cell suspension was added to the test compound wells, the unstimulated control wells, and the stimulated control wells, and incubated for 16–24 h. To perform an agonist assay, 8 μL of 5 × of agonist in the assay medium was added to the cells. […] Then, the agonist and antagonist plates were incubated in a humidified incubator at 37 °C/5% CO2 for 5 h. After the incubation, 8 μL of LiveBLAzer™-FRET B/G substrate mixture (CCF4-AM) was loaded into cells in the absence of direct strong lighting, covered, and incubated at room temperature for 2 h.

Ki ([1]; ADRA1, experiment 1, 2, 3, read-out: Ki, single experiments): 14.9 nM and 9.23 nM and 10.1 nM | Ki ([1]; [3H] prazosin, rat cerebral cortex, mean ± SEM, n = 3, read-out: Ki): 11.3 ± 1.7 nM
SMILES: Cc1ccc(N(CC2=NCCN2)c2cccc(O)c2)cc1 [Phentolamine]

SMILES: CNC[C@H](O)c1cccc(O)c1 [Phenylephrine]
CPM ([2]; log of molar concentration -5): 141 CPM and 116 CPM and 96 CPM and 109 CPM and 123 CPM and 92 CPM | CPM ([2]; log of molar concentration -6): 126 CPM and 136 CPM and 132 CPM and 152 CPM and 190 CPM and 224 CPM | CPM ([2]; log of molar concentration -7): 392 CPM and 260 CPM and 300 CPM and 297 CPM and 293 CPM | CPM ([2]; log of molar concentration -8): 433 CPM and 441 CPM and 410 CPM and 390 CPM and 339 CPM and 367 CPM | CPM ([2]; log of molar concentration -9): 380 CPM and 398 CPM and 394 CPM and 410 CPM and 367 CPM and 391 CPM | CPM ([2]; log of molar concentration -10): 502 CPM and 429 CPM and 290 CPM and 400 CPM and 415 CPM and 423 CPM

% of max response ([3]; antagonist vs brimonidine EC80, concentration 1e-11): 99.193% and 99.631% | % of max response ([3]; antagonist vs brimonidine EC80, concentration 1e-10): 89.6162% | % of max response ([3]; antagonist vs brimonidine EC80, concentration 1e-9): 70.6442% and 68.4607% | % of max response ([3]; antagonist vs brimonidine EC80, concentration 1e-8): 17.048% and 15.1589% | % of max response ([3]; antagonist vs brimonidine EC80, concentration 1e-7): 6.64% | % of max response ([3]; antagonist vs brimonidine EC80, concentration 1e-6): 8.3079%
SMILES: COC(=O)[C@@H]1[C@H]2C[C@H]3c4[nH]c5ccccc5c4CCN3C[C@@H]2CC[C@@H]1O [Yohimbine]

SMILES: Brc1c(NC2=NCCN2)ccc2nccnc12 [brimonidine]
% of max response ([3]; agonist, concentration 1e-11): -0.4968% and 2.419% and -2.234% and 0.961% | % of max response ([3]; agonist, concentration 1e-10): 2.567% and 0.2495% and -1.378% and 1.408% | % of max response ([3]; agonist, concentration 1e-9): 4.21% and 2.461% and -0.5064% and 3.335% | % of max response ([3]; agonist, concentration 1e-8): 48.0757% and 59.1796% and 30.9499% and 53.6276% | % of max response ([3]; agonist, concentration 1e-7): 88.9964% and 81.4266%
